Assay results as given in paper PMC11449324, “Functional comparison of human and murine equilibrative nucleobase transporter 1” (PLOS ONE, 2024).
Where two headings read alike, the source gives them in different places.

Columns and labels:
[1] = test system: L1210 cells; experiment: MTT cell viability assay, L1210; format: cell-based, murine; conditions: Mus musculus, L1210, 48 h, single-phase curve
Experimental: (§1) Transfected-HEK293, MOLT-4, and L1210 cells were seeded into 24-well plates at a density of 1.1x10^5 cells per well in complete culture medium. […] Medium containing no cells was used to determine spontaneous MTT reduction (background). In transfected-HEK293 cells, media was removed via a vacuum-powered aspirator and replaced with 150 μL of Dulbecco’s phosphate buffered saline (DPBS—137 mM NaCl, 2.7 mM KCl, 6.3 mM Na2HPO4, 1.5 mM KH2PO4, 0.5 mM MgCl2, 0.9 mM CaCl2, pH 7.4) containing MTT (1 mg/mL) for 90 minutes at 37°C. In MOLT-4 and L1210, cell suspension was transferred to 1.5 mL microcentrifuge tubes and centrifuged for 10 minutes at 3000 rcf. Following centrifugation, media was removed via gentle pipetting and replaced with 150 μL of DPBS containing MTT (1 mg/mL) for 90 minutes at 37°C. Microcentrifuge tubes were centrifuged again for 15 minutes at 23,500 rcf, and then DPBS containing MTT was removed via a vacuum-powered aspirator. The resultant formazan crystals were solubilized in 500 μL of DMSO and transferred to a 96-well plate in 200 μL duplicates. Absorbance was measured at 570 nm, in a SpectraMax® i3x Multi-Mode Detection Platform (Molecular Devices, San Jose, CA). After background subtraction, % cell viability was calculated as the ratio of absorbance in the presence of test compound to that measured with vehicle alone (X 100).

[2] = test system: HEK293-EV cells; experiment: MTT cell viability assay, HEK293-EV; format: cell-based, human; conditions: Homo sapiens, 48 h, first-phase EC50 where biphasic
Experimental: as §1

[3] = biological target: T1, mENBT1 (slc43a3-encoded mouse ENBT1) (Mus musculus, UniProt A2AVZ9); experiment: Radiolabelled substrate uptake (oil-stop, 2 s) in HEK293-mslc43a3 cells; format: cell-based
T1 construct: Oligonucleotides corresponding to the coding region of SLC43A3 (NM_001278201) or slc43a3 (NM_021398); expressed in transfected cells; HEK293-mslc43a3
T1 sequence (A2AVZ9 1-502): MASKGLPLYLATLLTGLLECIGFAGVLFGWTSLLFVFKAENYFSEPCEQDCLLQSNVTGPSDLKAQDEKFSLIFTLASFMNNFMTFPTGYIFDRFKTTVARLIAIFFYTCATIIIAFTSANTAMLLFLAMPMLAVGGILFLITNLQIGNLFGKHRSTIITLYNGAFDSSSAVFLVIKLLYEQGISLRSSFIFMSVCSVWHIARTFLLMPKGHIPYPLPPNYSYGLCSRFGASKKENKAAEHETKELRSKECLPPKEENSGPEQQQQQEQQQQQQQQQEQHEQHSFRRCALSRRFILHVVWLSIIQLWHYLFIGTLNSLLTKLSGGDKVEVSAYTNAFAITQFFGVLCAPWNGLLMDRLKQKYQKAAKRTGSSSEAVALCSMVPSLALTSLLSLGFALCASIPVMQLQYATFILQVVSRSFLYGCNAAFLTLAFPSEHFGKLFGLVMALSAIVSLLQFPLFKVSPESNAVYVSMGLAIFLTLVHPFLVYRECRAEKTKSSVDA
Experimental: Harvested cells were suspended in nominally sodium-free N-methyl-D-glucamine (NMG) buffer (140 mM NMG, 5 mM KCl, 4.2 mM KHCO3, 0.36 mM K2HPO4, 0.44 mM KH2PO4, 0.5 mM MgCl2, 1.3 mM CaCl2, 10 mM HEPES, pH 7.4), to minimize potential contribution of sodium-dependent concentrative nucleoside transporter-mediated uptake. Additionally, cells were incubated for 15 minutes at room temperature with 10 μM dipyridamole (DY), an equilibrative nucleoside transporter (ENT) inhibitor, to block equilibrative nucleoside transporter–mediated uptake. The substrate uptake assay was initiated by adding 250 μL cell suspension to 250 μL [^3H] labeled substrate, layered over 21:4 silicone:mineral oil (200 μL) in 1.5 mL microcentrifuge tubes (conducted at room temperature). The uptake reaction was terminated after 2 seconds by centrifugation of the cells through the oil layer at ~10,000 g. […] The resulting cell pellet was digested in 250 μL 1 M NaOH overnight (~16 hours), with 220 μL aliquots of digested cells assessed for radioactive content using standard liquid scintillation counting techniques in a Beckman Coulter LS6500 scintillation system (Brea, CA).
In transfected-HEK293 cell lines, total uptake was defined as uptake of radiolabeled substrate in cells overexpressing recombinant hENBT1 or mENBT1. […] ENBT1-mediated uptake was calculated as total uptake minus the non-mediated uptake. […]

[4] = test system: HEK293-mslc43a3 cells; experiment: MTT cell viability assay, HEK293-mslc43a3; format: cell-based, human
Experimental: as §1

[5] = test system: MOLT-4 cells; experiment: MTT cell viability assay, MOLT-4; format: cell-based, human; conditions: for EC50: Homo sapiens, MOLT-4, 48 h, read-out: first-phase EC50 cell viability
Experimental: as §1

Sc1ncnc2nc[nH]c12 [6-MP, 6-Mercaptopurine] was tested, and the EC50 [1] was 600 ± 200 nM, the EC50 [2] was 18800 ± 510 nM and the “6-MP Km relative to adenine Km” value [3] was 3 fold. For the same molecule, the “6-MP Vmax relative to adenine Vmax” value [3] was 3 fold, the “shift in EC50 (increased sensitivity) relative to HEK293-EV cells” value ([4]; HEK293-mslc43a3 vs HEK293-EV) was 19 fold and the EC50 ([4]; Homo sapiens, HEK293-mslc43a3, 48 h, MTT, first-phase EC50 where biphasic) was 960 ± 280 nM. The EC50 ([5]; MTT, biphasic curve (Fig 10A)) was 700 ± 200 nM, the EC50 ([5]; in absence of DY, solvent DMSO present) was 500 ± 100 nM and the “increase in 6-MP sensitivity on co-treatment with DY” value ([5]; MOLT-4, 6-MP + DY vs 6-MP + solvent) was 2 fold.
